Tests used:
Parameters in all cases: species or system AML cell lines (8); Primary HTS, single concentration about 10 uM, Cell Titer Glo viability; log10 luminescence, per cent inhibition relative to cycloheximide control
Conditions in all cases: 72 h, relative to cycloheximide control, log10 luminescence; inhibitor
[1] = test system: U937
[2] = test system: ML-2
[3] = test system: CMK
[4] = test system: M07e
[5] = test system: MOLM-13
[6] = test system: MV4-11
[7] = test system: CHRF288-11
[8] = test system: CMS

SMILES	U937 %inh [1]	ML-2 %inh [2]	CMK %inh [3]	M07e %inh [4]	MOLM-13 %inh [5]	MV4-11 %inh [6]	CHRF288-11 %inh [7]	CMS %inh [8]
[O-][S+]1CCN(Cc2ccc(-c3ccc4ncnc(Nc5ccc(OCc6ccccc6)c(Cl)c5)c4c3)o2)CC1 [SJ000573105-1, U14859/143/2]	1.842%	-0.9946%	4.729%	-0.2789%	4.138%	5.18%	0.5474%	-1.021%
CS(=O)(=O)CCNCc1ccc(-c2ccc3ncnc(Nc4ccc(OCc5cccc(C(F)(F)F)c5)cc4)c3c2)o1 [SJ000573107-1, U14801/49/2]	-2.16%	1.894%	3.779%	-0.9182%	82.16%	64.67%	2.523%	0.378%
CS(=O)(=O)Nc1ccc(-c2cc(-c3ccccc3)cc(C(N)=O)c2N)cc1 [SJ000573108-1, R12070/86/1]	-2.496%	-0.5203%	-4.619%	0.06792%	-0.8297%	0.1875%	2.153%	-2.317%
N#Cc1ccc(Oc2nccc(-c3c(-c4ccc(F)cc4)ncn3C3CCNCC3)n2)cc1 [SJ000573110-1, JB27026-057C1]	-2.466%	1.756%	-0.241%	7.948%	1.125%	-1.125%	0.2466%	-2.544%
COc1c(C(N)=O)cc(-c2ccc(Cl)cc2)cc1-c1ccc(S(N)(=O)=O)cc1 [SJ000573112-1, R12706/72/1]	1.708%	3.182%	7.525%	-1.128%	6.365%	-1.028%	-3.227%	5.358%
CS(=O)(=O)CCNCc1cc(-c2cc3c(Nc4ccc(OCc5cccc(F)c5)c(Cl)c4)ncnc3s2)cs1 [SJ000573113-1, U20258/167/2]	1.681%	-1.098%	4.188%	1.088%	4.183%	1.359%	-4.074%	1.969%
COc1cccc(/C=N/Nc2ncnc3c2cnn3-c2cccc(OC)c2)c1 [SJ000573114-1, U19125/70/2]	-1.619%	-2.362%	1.014%	-0.7733%	0.5296%	-0.9072%	-4.16%	0.5792%
COc1cc(Nc2ncc(-c3ccccc3)o2)cc(OC)c1 [SJ000573115-1, U21834/32/1]	0.9564%	2.252%	3.561%	1.992%	74.91%	75.56%	-9.037%	-1.309%
O=S(=O)(CCOCc1ccc(-c2ccc3ncnc(Nc4ccc(OCc5cccc(F)c5)c(Cl)c4)c3c2)o1)c1ccccc1 [SJ000573116-1, U15872/4/1]	-1.869%	-0.1863%	-5.52%	-2.095%	-1.247%	2.149%	-0.6594%	1.936%
COc1ccccc1Nc1ncc(-c2ccccc2)o1 [SJ000573117-1, U14961/90/1]	-2.759%	0.6262%	-0.2443%	4.937%	90.67%	83.21%	5.085%	-1.143%
NC(=O)c1ccc(Oc2nccc(-c3c(-c4ccc(F)cc4)ncn3C3CCNCC3)n2)cc1 [SJ000573120-1, JB27193-061B1]	4.71%	1.469%	7.904%	-0.791%	6.408%	1.936%	0.2701%	-1.264%
Fc1cccc(COc2ccc(Nc3ncnc4sc(-c5cccs5)cc34)cc2Cl)c1 [SJ000573122-1, U22476/39/1]	3.407%	0.7454%	1.871%	-0.3704%	3.265%	-2.021%	-6.815%	-1.772%
Fc1ccc(-c2ncn(C3CCNCC3)c2-c2ccnc(Oc3ccc4c(c3)OCO4)n2)cc1 [SJ000573123-1, JB27026-196B1]	5.059%	3.564%	13.54%	3.354%	2.344%	0.1546%	7.293%	0.7899%
CS(=O)(=O)CCNCc1ccc(-c2ccc3ncnc(Nc4ccc(OCc5ccccc5)c(C(F)(F)F)c4)c3c2)o1 [SJ000573124-1, U14859/90/2]	1.669%	3.074%	-0.3954%	-5.391%	3.836%	-0.8429%	-4.921%	-0.5761%
Fc1ccc(-c2ncn(C3CCNCC3)c2-c2ccnc(Oc3ccc(Oc4ccccc4)cc3)n2)cc1 [SJ000573126-1, JB27026-104B1]	16.46%	34.19%	18.72%	10.64%	28.44%	29.08%	38.59%	2.898%
COc1ccc(-c2ccncc2)cc1C(N)=O [SJ000573127-1, R12444/16/1]	2.206%	2.021%	5.063%	1.948%	4.454%	-1.177%	-1.562%	5.051%
CNC(=O)c1cc(-c2ccc(F)cc2)cc(-c2ccc(S(=O)(=O)N3CCCC3)cc2)c1N [SJ000573128-1, R11976/170/3]	15.8%	6.119%	31.99%	5.294%	10.13%	2.522%	14.81%	9.624%
COc1ccc2cc(-c3c(-c4ccncc4)nc(-c4ccc([S+](C)[O-])cc4)n3C)ccc2c1 (centres unmarked) [SJ000573130-1, NJ44241-161A1]	-2.991%	-0.4869%	-2.307%	-4.153%	-0.6311%	-3.083%	0.3346%	-2.967%
Fc1ccc(-c2nc3n(c2-c2ccncc2)CCS3)cc1 [SJ000573131-1, RJA-12113-255 | U519/32/1 | SKF 86002]	-2.013%	0.01337%	1.491%	0.008042%	-3.313%	-2.292%	-0.4036%	-0.311%
c1cnn2ncc(-c3ccnc(NCCCN4CCOCC4)n3)c2c1 [SJ000573132-1, U14929/199/1]	21.78%	4.815%	3.496%	4.031%	36.05%	15.28%	17.57%	12.25%
CCS(=O)(=O)c1ccc(OC)c(Nc2ncc(-c3cccc(-c4ccccc4F)c3)o2)c1 [SJ000573133-1, U16399/42/1]	-2.484%	1.693%	-2.911%	-0.6473%	73.99%	49.91%	3.996%	-1.131%
Cc1ccc(Nc2ccnc(Nc3cccc(C(N)=O)c3)n2)cc1O [SJ000573134-1, R4218/174/1]	-1.642%	3.588%	14.84%	3.53%	95.23%	65.12%	5.659%	-1.873%
